The record followed here is US10894807B2 (Siemens Medical Solutions USA, Inc., priority 2011, dated 2021).

pKi: −log10 of the molar value. Where only a bound is given, the exact number is not on record here.

In the assay the target is human PSMA (Homo sapiens (Human), UniProt Q04609). Briefly: Enzymatic assay for in vitro evaluation of PSMA inhibitors (fluorescent assay of PSMA activity, NAAG substrate, OPA detection of glutamate). Type of assay: biochemical.
Chain of human PSMA (Q04609 whole entry): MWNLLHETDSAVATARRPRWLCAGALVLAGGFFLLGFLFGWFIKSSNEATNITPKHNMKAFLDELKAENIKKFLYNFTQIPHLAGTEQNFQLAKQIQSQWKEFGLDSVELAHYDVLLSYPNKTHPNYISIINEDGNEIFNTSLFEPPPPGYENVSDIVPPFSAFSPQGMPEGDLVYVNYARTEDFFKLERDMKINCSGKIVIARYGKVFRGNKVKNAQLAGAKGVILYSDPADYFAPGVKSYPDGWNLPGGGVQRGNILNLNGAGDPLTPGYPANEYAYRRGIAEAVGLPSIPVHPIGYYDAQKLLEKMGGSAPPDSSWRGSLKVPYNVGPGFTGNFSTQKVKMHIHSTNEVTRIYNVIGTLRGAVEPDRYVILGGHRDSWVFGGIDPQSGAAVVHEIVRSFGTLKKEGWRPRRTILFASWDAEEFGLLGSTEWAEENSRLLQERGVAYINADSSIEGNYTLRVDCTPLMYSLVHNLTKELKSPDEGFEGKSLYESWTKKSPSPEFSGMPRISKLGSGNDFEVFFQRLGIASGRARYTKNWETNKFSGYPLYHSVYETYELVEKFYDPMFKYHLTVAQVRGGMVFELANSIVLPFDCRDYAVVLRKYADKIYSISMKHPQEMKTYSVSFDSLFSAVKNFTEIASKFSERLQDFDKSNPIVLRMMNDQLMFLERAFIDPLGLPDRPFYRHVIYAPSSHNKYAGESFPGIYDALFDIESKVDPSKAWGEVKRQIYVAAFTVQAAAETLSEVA

One may read the pKi as the Ki on a negative log10 scale, so that one unit is a factor of ten. Regarding `O=C(O)CC[C@H](NC(=O)N[C@@H](CCCCNc1cc(NCCOCCn2cc(CCCF)nn2)ncn1)C(=O)O)C(=O)O` [P271, (S)-2-(3-((S)-1-Carboxy-5-((6-((2-(2-(4-(3-fluoropropyl)-1H-1,2,3-triazol-1-yl)ethoxy)ethyl)amino)pyrimidin-4-yl)amino)pentyl)ureido)pentanedioic Acid], the pKi was 9.10 and the “PSMA Blkg % (1.0 μM)” value amounted to 98%.

On to `O=C(O)CC[C@H](NC(=O)C[C@@H](NC(=O)Cc1ccc(F)cc1)C(=O)O)C(=O)O` [P210, (S)-2-((R)-3-Carboxy-3-(2-(4-fluorophenyl)acetamido)propanamido)pentanedioic Acid], for which the “PSMA Blkg % (10 μM)” value (10 μM) amounted to 16%.

In the case of `O=C(O)CC[C@H](NC(=O)C[C@@H](NC(=O)N1CCN(C(=O)OCc2ccccc2)CC1)C(=O)O)C(=O)O` [P229, (S)-2-((R)-3-(4-((Benzyloxy)carbonyl)piperazine-1-carboxamido)-3-carboxypropanamido)-pentanedioic Acid], the “PSMA Blkg % (1.0 μM)” value is on record as 25%.

For `O=C(O)CC[C@@H](C(=O)O)n1c(=O)[nH]c(=O)n([C@@H](CCCCNC(=O)OCc2ccccc2)C(=O)O)c1=O` [P084, (S)-2-(3-((S)-5-(Benzyloxycarbonylamino)-1-carboxypentyl)-2,4,6-trioxo-1,3,5-triazinan-1-yl)pentanedioic Acid], the “PSMA Blkg % (10 μM)” value (compound at 10 μM) turned out to be 19%. `O=C(O)CC[C@@H](C(=O)O)N(O)C(=O)N[C@@H](CCCCNC(=O)c1ccc(F)cc1)C(=O)O` [P162, (S)-2-(3-((S)-1-Carboxy-5-(4-fluorobenzamido)pentyl)-1-hydroxyureido)pentanedioic Acid] gave a negative-log Ki (pKi) below 6.27. For the same molecule, where the note is “compound at 10 μM”, the “PSMA Blkg % (10 μM)” value is on record as 79%.

The molecule `O=C(O)CC[C@H](NC(=O)N(O)[C@@H](CCCCNC(=O)c1ccc(-n2cc(CCCF)nn2)cc1)C(=O)O)C(=O)O` [P092, (S)-2-(3-((S)-1-Carboxy-5-(4-(4-(3-fluoropropyl)-1H-1,2,3-triazol-1-yl)benzamido)pentyl)-3-hydroxyureido)pentanedioic Acid] showed a pKi of 7.51. The “PSMA Blkg % (10 μM)” value (compound at 10 μM) amounted to 99%. Consider `[N-]=[N+]=Nc1ccc(CCCC(=O)NC(Cc2cn(C(CCC(=O)O)C(=O)O)nn2)C(=O)O)cc1` (stereo not drawn) [P137], for which the “PSMA Blkg % (10 μM)” value (compound at 10 μM) is given as 3%. Same read-out and setting: the value for `O=C(O)CC[C@H](NC(=O)N1CCC[C@H]1C(=O)O)C(=O)O` [P075, (S)-2-((S)-2-Carboxypyrrolidine-1-carboxamido)pentanedioic Acid] was 32%. In the case of `O=C(O)CC[C@@H](C(=O)O)N(O)C(=O)N[C@@H](CCCCNC(=O)Cn1cc(CCCF)nn1)C(=O)O` [P148, (S)-2-(3-((S)-1-Carboxy-5-(2-(4-(3-fluoropropyl)-1H-1,2,3-triazol-1-yl)acetamido)pentyl)-1-hydroxyureido)pentanedioic Acid], the negative-log Ki (pKi) is 6.60. Besides, under “compound at 10 μM”, the “PSMA Blkg % (10 μM)” value is recorded as 87%. Regarding `O=C(O)CC[C@H](Nc1nc(C(=O)O)co1)C(=O)O` [P037, (S)-2-((4-Carboxyoxazol-2-yl)amino)pentanedioic Acid], the “PSMA Blkg % (10 μM)” value (compound at 10 μM) came out at 12%. In the case of `O=C(O)CC[C@H](NC(=O)C[C@@H](NC(=O)c1ccc(F)nc1)C(=O)O)C(=O)O` [P213, (S)-2-((R)-3-Carboxy-3-(6-fluoronicotinamido)propanamido)pentanedioic Acid], where the note is “10 μM”, the “PSMA Blkg % (10 μM)” value stood at 33%.

As for `CN(C(=O)N[C@@H](CCC(=O)O)C(=O)O)[C@@H](CCCCn1cc(CCCF)nn1)C(=O)O` [P173, (S)-2-(3-((S)-1-Carboxy-5-(4-(3-fluoropropyl)-1H-1,2,3-triazol-1-yl)pentyl)-3-methylureido)pentanedioic Acid], where the note is “compound at 10 μM”, the “PSMA Blkg % (10 μM)” value turned out to be 31%.

For the molecule `O=C(O)CC[C@@H](C(=O)O)N(O)C(=O)N[C@@H](CCCCNC(=O)CCCc1ccc(-n2cc(CCCF)nn2)cc1)C(=O)O` [P147, (S)-2-(3-((S)-1-Carboxy-5-(4-(4-(4-(3-fluoropropyl)-1H-1,2,3-triazol-1-yl)phenyl)butanamido)pentyl)-1-hydroxyureido)pentanedioic Acid], where the note is “compound at 10 μM”, the “PSMA Blkg % (10 μM)” value is reported as 69%. As for `O=C(Nc1cc(C(=O)O)cc(C(=O)O)c1)N[C@@H](Cc1ccc(OCCF)cc1)C(=O)O` [P006, (S)-5-(3-(1-Carboxy-2-(4-(2-fluoroethoxy)phenyl)ethyl)ureido)isophthalic Acid], for the setting “compound at 10 μM”, the “PSMA Blkg % (10 μM)” value worked out at 0%. As for `O=C(O)CCC(NS(=O)(=O)N[C@@H](CCC(=O)O)C(=O)O)C(=O)O` (stereo partly drawn) [P099, (2S)-2,2′-(Sulfonylbis(azanediyl))dipentanedioic Acid], for the setting “compound at 10 μM”, the “PSMA Blkg % (10 μM)” value turned out to be 0%. For `O=C(O)CC[C@H](NC(=O)N[C@@H](CCCCNC(=S)Nc1ccc(-n2cc(CCCF)nn2)cc1)C(=O)O)C(=O)O` [P200, (S)-2-(3-((S)-1-Carboxy-5-(3-(4-(4-(3-fluoropropyl)-1H-1,2,3-triazol-1-yl)phenyl)thioureido)pentyl)-ureido)pentanedioic Acid], the negative logarithm of the Ki (pKi) is above 9.52. Further, the “PSMA Blkg % (10 μM)” value (10 μM) is listed as 95%. Molecule `O=C(O)CC[C@H](NC(=O)N[C@@H](CCCCNC(=O)c1ccc(-n2cc(CCCF)nn2)cc1)C(=O)O)C(=O)O` [P054] had a pKi of 8.80. The “PSMA Blkg % (10 μM)” value (compound at 10 μM) stood at 100%. `O=C(O)CC[C@@H](C(=O)O)N1C(=O)C(=O)N([C@@H](CCCCNC(=O)OCc2ccccc2)C(=O)O)C1=O` [P072, (S)-2-(3-((S)-5-(Benzyloxycarbonylamino)-1-carboxypentyl)-2,4,5-trioxoimidazolidin-1-yl)pentanedioic Acid]: the “PSMA Blkg % (10 μM)” value (compound at 10 μM) is given as 39%. On to `O=C(O)CCC(NC(=O)NC(CC1CCN(C(=O)CCC(CCC(=O)N2CCC(C[C@H](NC(=O)NC(CCC(=O)O)C(=O)O)C(=O)O)CC2)NC(=O)c2ccc(-n3cc(CCCF)nn3)cc2)CC1)C(=O)O)C(=O)O` (stereo in doubt) [P292, (2S)-2-(3-((1S)-1-Carboxy-2-(1-(7-(4-((S)-2-carboxy-2-(3-((S)-1,3-dicarboxypropyl)-ureido)-ethyl)-piperidin-1-yl)-4-(4-(4-(3-fluoropropyl)-1H-1,2,3-triazol-1-yl)-benzamido)7-oxoheptanoyl)-piperidin-4-yl)ethyl)ureido)pentanedioic Acid], for which the pKi was 9.15 and the “PSMA Blkg % (1.0 μM)” value is 96%. Take `O=C(O)CCC(NC(=O)C(=O)N[C@@H](CCC(=O)O)C(=O)O)C(=O)O` (stereo partly drawn) [P098, (2′S)-2,2′-(Oxalylbis(azanediyl))dipentanedioic Acid]: the “PSMA Blkg % (10 μM)” value (compound at 10 μM) is given as 23%.

Turning to `O=C(O)CCC(CP(=O)(O)OCCOCCOCCOCCn1cc(CCCF)nn1)C(=O)O` (stereo not drawn) [P193, 2-(((2-(2-(2-(2-(4-(3-Fluoropropyl)-1H-1,2,3-triazol-1-yl)ethoxy)ethoxy)ethoxy)ethoxy)(hydroxy)phosphoryl)methyl)pentanedioic Acid], the “PSMA Blkg % (10 μM)” value (10 μM) stood at 0%. `C[C@H](NC(=O)CCCN=[N+]=[N-])C(=O)N[C@@H](CCC(=O)O)C(=O)O` [P031, (S)-2-((S)-2-(4-Azidobutanamido)propanamido)pentanedioic Acid]: under “compound at 10 μM”, the “PSMA Blkg % (10 μM)” value worked out at 19%.

On to `O=C(O)CCC(CP(=O)(O)OCCC1CCN(C(=O)CCc2ccc(-n3cc(CCCF)nn3)cc2)CC1)C(=O)O` (stereo not drawn) [P225, 2-(((2-(1-(3-(4-(4-(3-Fluoropropyl)-1H-1,2,3-triazol-1-yl)phenyl)propanoyl)piperidin-4-yl)ethoxy)(hydroxy)phosphoryl)methyl)pentanedioic Acid], for which the “PSMA Blkg % (1.0 μM)” value is 7%. For `O=C(O)CCC(NC(=O)N[C@@H](CCCCNC(=O)CCC(CCC(=O)NCCCC[C@H](NC(=O)NC(CCC(=O)O)C(=O)O)C(=O)O)(CCC(=O)NCCCC[C@H](NC(=O)NC(CCC(=O)O)C(=O)O)C(=O)O)NC(=O)c1ccc(-n2cc(CCCF)nn2)cc1)C(=O)O)C(=O)O` (stereo partly drawn) [P287, (3S,7S,25S,29S)-16-(3-(((S)-5-Carboxy-5-(3-((S)-1,3-dicarboxypropyl)ureido)pentyl)amino)-3-oxopropyl)-16-(4-(4-(3-fluoropropyl)-1H-1,2,3-triazol-1-yl)benzamido)-5,13,19,27-tetraoxo-4,6,12,20,26,28-hexaazahentriacontane-1,3,7,25,29,31-hexacarboxylic Acid], the pKi is 9.00 and the “PSMA Blkg % (1.0 μM)” value turned out to be 95%. The matching figures for `O=C(O)CC[C@H](NC(=O)N[C@@H](Cc1ccc(NC(=O)N2CCN(C(=O)OCc3ccccc3)CC2)cc1)C(=O)O)C(=O)O` [P222]: 9.25 and 98%.

With `O=C(O)CCNC(=O)N[C@@H](CCC(=O)O)C(=O)O` [P026, (S)-2-(3-(2-Carboxyethyl)ureido)pentanedioic Acid], where the note is “compound at 10 μM”, the “PSMA Blkg % (10 μM)” value is reported as 2%. Regarding `O=C(O)CC[C@@H](C(=O)O)N1C(=O)CC(=O)N([C@@H](CCCCNS(=O)(=O)c2ccc([N+](=O)[O-])cc2)C(=O)O)C1=O` [P128, (S)-2-(3-((S)-1-Carboxy-5-(4-nitrophenylsulfonamido)pentyl)-2,4,6-trioxotetrahydropyrimidin-1(2H)-yl)pentanedioic Acid], where the note is “compound at 10 μM”, the “PSMA Blkg % (10 μM)” value was 12%.

Turning to `O=C(O)CC[C@H](NC(=O)C[C@H](NC(=O)CCCc1ccc(-n2cc(CCCF)nn2)cc1)C(=O)O)C(=O)O` [P115], the “PSMA Blkg % (10 μM)” value (compound at 10 μM) was found to be 36%. Still for that read-out and setting: the value for `[N-]=[N+]=NCCCCC(=O)NS(=O)(=O)N[C@@H](CCC(=O)O)C(=O)O` [P183, (S)-2-((N-(5-Azidopentanoyl)sulfamoyl)amino)pentanedioic Acid] was 36%. `O=C(O)CC[C@@H](NC(=O)N[C@@H](CCCCNC(=O)OCc1ccccc1)C(=O)O)C(=O)O` [P295, (9S,13R)-3,11-Dioxo-1-phenyl-2-oxa-4,10,12-triazapentadecane-9,13,15-tricarboxylic Acid]: the “PSMA Blkg % (1.0 μM)” value is on record as 45%. For the molecule `O=C(O)CC[C@H](NC(=O)C[C@@H](NC(=O)CCCc1ccc(F)cc1)C(=O)O)C(=O)O` [P211, (S)-2-((R)-3-Carboxy-3-(4-(4-fluorophenyl)butanamido)propanamido)pentanedioic Acid], for the setting “10 μM”, the “PSMA Blkg % (10 μM)” value came to 43%.

Take `O=C(O)CC[C@H](NC(=O)N[C@@H](Cc1ccc(NC(=O)c2ccc(F)cc2)cc1)C(=O)O)C(=O)O` [P241]: the pKi is 9.42 and the “PSMA Blkg % (1.0 μM)” value was 94%.
